{
  "source": "patent US8058008B2",
  "about": "“Method for extracting quantitative information relating to an influence on a cellular response” (Fisher Bioimage APS, priority 1997, dated 2011)",
  "key": {"[1]": {"tested_on": "PKAc-F64L-S65T-GFP fusion", "test": "PKAc-F64L-S65T-GFP redistribution in stably transfected CHO cells (fluorescence microscopy, image analysis)", "format": "cell-based, murine", "method": "The catalytic subunit of the murine cAMP dependent protein kinase (PKAc) was fused C-terminally to a F64L-S65T derivative of GFP. The resulting fusion (PKAc-F64L-S65T-GFP) was used for monitoring in vivo the translocation and thereby the activation of PKA.\nUntransfected CHO cells were used as the control. […] Expression of GR was maintained with 500 mg G418/ml (Neo marker) and PKAc-F64L-S65T-GFP was maintained with 500 mg Zeocin/ml (Sh ble marker). CHO cells were also simultaneously co-transfected with vectors containing the PKAc-F64L-S65T-GFP fusion and the human a2a adrenoceptor (hARa2a).\nFor fluorescence microscopy, cells were allowed to adhere to Lab-Tek chambered cover-glasses (Nalge Nunc Int., Naperville, Ill., USA) for at least 24 hours and cultured to about 80% confluence. Prior to experiments, the cells were cultured over night without selection pressure in HAM F-12 medium with glutamax (Life Technologies), 100 mg penicillin-streptomycin mixture ml^−1 and 0.3% FBS. This medium has low autofluorescence enabling fluorescence microscopy of cells straight from the incubator.\nThe cells were illuminated with a 100 W HBO arc lamp.\nMethod 1: Stepwise Procedure for Quantitation of Translocation of PKA:\n3. The image histogram, i.e., the frequency of occurrence of each intensity value in the image, was calculated.\n4. A smoothed, second derivative of the histogram was calculated and the second zero is determined. […]\n5. The value determined in step 4 was subtracted from the image. […]\n6. The variance (square of the standard deviation) of the remaining pixel values was determined. […]\nMethod 2: Alternative Method for Quantitation of PKA Redistribution:\n1. […] The area of each image occupied by the aggregates is calculated by counting pixels in the segmented areas. […] A value of zero (0) indicates no redistribution of fluorescence from the starting condition. […]\nAs described above, the time it took for a response to come to completion was dependent on the forskolin dose (FIG. 5) In addition the degree of responses was also dose dependent. […] The amount of cAMP produced was measured in an SPA assay. […]"}, "[2]": {"tested_on": "EGFP-Erk1 fusion", "test": "EGFP-Erk1 nuclear translocation in HEK293 cells", "format": "cell-based, human", "text": "b) The human Erk1 gene (GenBank Accession number: X60188) was amplified using PCR according to standard protocols with primers Erk1-top (SEQ ID NO:9) and Erk1-bottom/+stop (SEQ ID NO:10). The PCR product was digested with restriction enzymes EcoR1 and BamH1, and ligated into pEGFP-C1 (Clontech, Palo Alto; GenBank Accession number U55763) digested with EcoR1 and BamH1. This produces an EGFP-Erk1 fusion (SEQ ID NO:38 &39) under the control of a CMV promoter.\nThe plasmid containing the EGFP-Erk1 fusion was transfected into HEK293 cells employing the FUGENE transfection reagent (Boehringer Mannheim). Prior to experiments the cells were grown to 80%-90% confluency 8 well chambers in DMEM with 10% FCS. […] Just before starting the experiment, the HAM F-12 was replaced with Hepes buffer following a wash with Hepes buffer. This removes the PD98059 inhibitor; if blocking of MEK1 is still wanted (e.g. in control experiments), the inhibitor is included in the Hepes buffer.\nThe experimental setup of the microscope was as described in example 1.\n60 images were collected with 10 seconds between each, and with the test compound added after image number 10.\nRedistribution of GFP fluorescence is expressed in this example as the change in the ratio value between areas in nuclear versus cytoplasmic compartments of the cell. Each time profile is the average of nuclear to cytoplasmic ratios from six cells in each treatment."}, "[3]": {"tested_on": "cAMP", "test": "Scintillation proximity assay (SPA) of cAMP produced in CHO cells", "format": "cell-based, Chinese hamster", "conditions": "8 concentrations 0.01-50 mM (n=4), 100 mM IBMX, 10 min", "method": "7. Scintillation proximity assay (SPA) for independent quantitation of cAMP:\nCells were cultured in HAM F-12 medium as described above, but in 96-well plates. The medium was exchanged with Ca^2+-HEPES buffer including 100 mM IBMX and the cells were stimulated with different concentrations of forskolin for 10 min. Reactions were stopped with addition of NaOH to 0.14 M and the amount of cAMP produced was measured with the cAMP-SPA kit, RPA538 (Amersham) as described by the manufacturer.\nAs described above, the time it took for a response to come to completion was dependent on the forskolin dose (FIG. 5) In addition the degree of responses was also dose dependent. To test the PKA-F64L-S65T-GFP fusion protein translocation in a semi high through-put system, CHO cells stably transfected with the PKA-F64L-S65T-GFP fusion was stimulated with buffer and 5 increasing doses of forskolin (n=8). […] In parallel, cells were stimulated with buffer and 8 increasing concentrations of forskolin (n=4) in the range 0.01-50 mM. The amount of cAMP produced was measured in an SPA assay. A steep increase was observed between 1 and 5 mM forskolin coincident with the steepest part of the curve for fusion protein translocation (also FIG. 6)"}, "[4]": {"target": "T1, PKA-F64L-S65T-GFP probe / human a2a adrenoceptor (hARa2a) (Homo sapiens, UniProt P08913)", "T1 construct": "expressed in transfected cells; host or cells: CHO, transient co-transfection", "T1 sequence (P08913 1-465)": "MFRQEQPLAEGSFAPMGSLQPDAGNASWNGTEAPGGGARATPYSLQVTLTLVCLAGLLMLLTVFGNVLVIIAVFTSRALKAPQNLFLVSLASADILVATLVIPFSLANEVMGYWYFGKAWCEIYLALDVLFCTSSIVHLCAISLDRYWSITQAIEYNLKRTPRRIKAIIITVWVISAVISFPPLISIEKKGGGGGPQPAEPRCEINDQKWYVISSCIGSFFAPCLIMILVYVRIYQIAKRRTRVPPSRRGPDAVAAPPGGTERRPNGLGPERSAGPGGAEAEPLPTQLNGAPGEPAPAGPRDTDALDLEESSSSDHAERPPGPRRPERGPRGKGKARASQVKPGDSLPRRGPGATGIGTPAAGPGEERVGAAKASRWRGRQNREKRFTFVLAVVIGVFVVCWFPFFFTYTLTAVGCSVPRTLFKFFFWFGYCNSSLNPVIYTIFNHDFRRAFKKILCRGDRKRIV", "test": "PKAc-F64L-S65T-GFP redistribution in transiently transfected CHO cells expressing hARa2a", "format": "cell-based, murine", "conditions": "10 mM norepinephrine after 10 mM forskolin for 7.5 minutes, forskolin still present", "description": "Transiently transfected CHO cells expressing hARa2a and the PKA-F64L-S65T-GFP probe were treated with 10 mM forskolin for 7.5 minutes, then, in the continued presence of forskolin, exposed to 10 mM norepinephrine to stimulate the exogenous adrenoreceptors, which couple to a Gi protein, which inhibit adenylate cyclase."}, "[5]": {"tested_on": "actin-binding-domain-EGFP fusion", "test": "Actin-binding-domain-EGFP redistribution in CHO cells expressing the human insulin receptor", "format": "cell-based", "conditions": "insulin stimulation", "text": "The actin binding domain of the human alpha-actinin gene (GenBank Accession number: X15804) was amplified using PCR according to standard protocols with primers ABD-top (SEQ ID NO:90) and ABD-bottom/−stop (SEQ ID NO:91). The PCR product was digested with restriction enzymes Hind3 and BamH1, and ligated into pEGFP-N 1 (Clontech, Palo Alto; GenBank Accession number U55762) digested with Hind3 and BamH1. This produced an actin-binding-domain-EGFP fusion (SEQ ID NO:128 &129) under the control of a CMV promoter.\nThe resulting plasmid was transfected into CHO cells expressing the human insulin receptor."}},
  "data": [
    {"molecule": "CC(C)Cn1c(=O)n(C)c(=O)c2[nH]cnc21", "note": "[IBMX]", "values": [
      {"measurement": "temporal profile of fusion protein redistribution compared with forskolin", "setting": "[1]; 1 mM dbcAMP, 100 mM IBMX, no adenylate cyclase stimulation", "result": "slow response"},
      {"measurement": "return of fusion protein to prestimulatory localization after removal of forskolin", "setting": "[1]; 10 mM forskolin and 100 mM IBMX, then washed 5-8 times with buffer containing 100 mM IBMX", "result": "did not return to its prestimulatory localization"}
    ]},
    {"molecule": "COc1cccc(-c2cc(=O)c3ccccc3o2)c1N", "note": "[PD98059]", "values": [
      {"measurement": "effect on nuclear EGFP-Erk1", "setting": "[2]; 100 micromolar PD98059, 30-60 minutes in plain HAM F-12 without FCS", "result": "effectively empties the nucleus of EGFP-Erk1"}
    ]},
    {"molecule": "CCCC(=O)Nc1ncnc2c1ncn2[C@@H]1O[C@@H]2COP(=O)(O)O[C@H]2[C@H]1OC(=O)CCC", "note": "[dbcAMP]", "values": [
      {"measurement": "translocation of the fusion protein", "setting": "[1]; 1, 10 and 50 mM forskolin, dbcAMP at 1 mM", "result": "dramatic translocation of the fusion protein from a punctate distribution to an even distribution throughout the cytoplasm"}
    ]},
    {"molecule": "C=C[C@@]1(C)CC(=O)[C@]2(O)[C@@]3(C)[C@@H](O)CCC(C)(C)[C@@H]3[C@H](O)[C@H](OC(C)=O)[C@@]2(C)O1", "note": "[forskolin, Forskolin]", "values": [
      {"measurement": "forskolin concentration range of steep increase in amount of cAMP produced", "setting": "[3]", "result": "1 to 5", "unit": "mM"}
    ]},
    {"molecule": "NC[C@H](O)c1ccc(O)c(O)c1", "note": "[norepinephrine]", "values": [
      {"measurement": "localisation of fluorescence, indicative of a decrease in [cAMP]i", "setting": "[4]", "result": "reappearance of fluorescence in the cytoplasmic aggregates"}
    ]},
    {"molecule": "EGF: growth factor added to activate the MAPK pathway and Erk1 nuclear translocation (NSDSECPLSHDGYCLHDGVCMYIEALDKYACNCVVGYIGERCQYRDLKWWELR; UniProt P01133 971-1023, looked up)", "values": [
      {"measurement": "redistribution of EGFP-Erk1", "setting": "[2]; EGF 1-100 nM, within minutes", "result": "redistribution of EGFP-Erk1 from the cytoplasm into the nucleus"},
      {"measurement": "relationship between concentration and nuclear translocation of EGFP-Erk1", "setting": "[2]; change in nuclear to cytoplasmic ratio, six cells per treatment", "result": "dose-dependent relationship"}
    ]},
    {"molecule": "insulin", "values": [
      {"measurement": "redistribution of actin binding domain-EGFP probe", "setting": "[5]", "result": "redistributed into morphologically distinct membrane-associated structures"}
    ]}
  ]
}
